Measurements reported in patent publication US6653529B2, “Use of the maize X112 mutant ahas 2 gene and imidazolinone herbicides for selection of transgenic monocots, maize, rice and wheat plants resistant to the imidazolinone herbicides” (BASF Aktiengesellschaft, priority 2000, dated 2003).
“And” between values parts separate entries of the source, which are not always exact repeats. Identical values can stand only once.

Legend:
Assay type in all cases: in vivo
transgenic rice Line 26 = experiment: Response of rice plants to various herbicides, seed set in greenhouse; conditions: post-emergence, 1× g ai/ha: PURSUIT 62.5, CADRE 32, ARSENAL 24, RAPTOR 32, SCEPTER 125, ACCENT 35, CLASSIC 5, AC322,140 20, LONDAX 68
From the text: (§1) A total of 9 herbicides, 5 imidazolinones, two rice herbicides and ACCENT® (nicosulfuron) and CLASSIC® (clorimuron-ethyl) were applied in this study. Materials and methods were basically the same as described above, except that instead of 6″ pots, flats with 18 (3″×3″ per cell) cells were used, and 10-12 seeds were planted to one 3″×3″ cell. Ten plants were maintained in one cell in the post-emergence application. Each herbicide was sprayed at 4 different rates, 1, 2, 4, and 6×, as either pre or post-emergence applications with three replications per treatment. The name and amount of herbicide applied in this experiment and information relevant to their commercial applications are listed in Table 3. For simplicity and convenience, the lowest concentration used is referred as 1× rate, 2, 4 and 6× rates can be calculated as multiples of 1×.
(§2) To monitor plant response to various herbicides, data on fresh weight was collected. For pre-emergence applications, all plants from one cell were harvested 32 days after spraying (36-day old plants) and weighed. Twenty-nine days after herbicide application, 5 plants (44-day old plants) from each cell in the post-emergence application, were cut and weighed individually. Mean fresh weight for each treatment was calculated over three replications. The remaining 5 plants were grown in the greenhouse to maturity at which time, panicles of 3 plants were collected, and number of filled seeds and number of total kernels were counted to determine percentage of seed set.

transgenic rice Line 29 = experiment: as above; conditions: post-emergence, 1× g ai/ha: PURSUIT 62.5, CADRE 32, ARSENAL 24, RAPTOR 32, SCEPTER 125, ACCENT 35, CLASSIC 5, AC322,140 20, LONDAX 68
From the text: as §1, §2

[1] = system: untransformed Nt rice plants; experiment: as above; conditions: post-emergence, 1× g ai/ha: PURSUIT 62.5, CADRE 32, ARSENAL 24, RAPTOR 32, SCEPTER 125, ACCENT 35, CLASSIC 5, AC322,140 20, LONDAX 68
From the text: as §1, §2

[2] = system: 3395IR (homozygous XA17 imi-resistant corn line); experiment: Greenhouse spray test of corn lines with imidazolinone herbicides, injury score; conditions: for Score, individual plants (0 dead plants, 5 healthy plants with no injury): 16 days after treatment; for M.S.: score 0 (dead) to 5 (healthy), 16 days
From the text: (§3) Grow one corn plant per pot (5×5 inch) in a 3×5 flat till three- to four-leaf stage (about 9 to 13 days depending on the weather). On the day of spraying, water the plants well and let excess water drip out. Spray plants on a belt-sprayer with the imidazolinone herbicides at desired rates. […] When temperature was too high, base water plants to prevent wilting. Closely observe the plants for the next two to three weeks. Symptoms of herbicide injury will be visible three days after spraying and susceptible plants will die within two to three weeks depending on temperature.
(§4) The plants were rated on a scale of 0-5 with 0 for dead plants and 5 for healthy plants with no or minimum injury.
(§5) Two transgenic hybrids BAa-4 and MAa-7 lines (see FIG. 5 for their pedigree), a non-transformed control line B×A (B73×A188), 8962IT (heterozygous XI12 imi-tolerant corn line), 8962 (wild type control) and 3395IR (homozygous XA17 imi-resistant corn line) (8962IT and 8962 were from ICI, now Garst Seed Company, Slater, Iowa 50244, and 3395IR was from Pioneer Hi-Bred International Inc, Iowa 50306-3453). Plants were sprayed with 4, 8, 16 or 20×PURSUIT® imazethapyr, ARSENAL® imazapyr, CADRE® imazameth or RAPTOR® imazamox. Plants were scored 0 to 5 (with 0 being dead plants, 5 being healthy plants with no injury) individually 16 days after herbicide treatments. […] For the four tested imidazolinones, transgenic plants could tolerate higher rates of ARSENAL® imazapyr, PURSUIT® imazethapyr, than CADRE® imazameth and RAPTOR® imazamox.

[3] = system: non-transformed control corn line BxA (B73×A188); experiment: as above; conditions: for Score, individual plants (0 dead plants, 5 healthy plants with no injury): 16 days after treatment; for M.S.: score 0 (dead) to 5 (healthy), 16 days
From the text: as §3, §4, §5

[4] = system: transgenic corn hybrid BAa-4; experiment: as above; conditions: BAa-4; for Score, individual plants (0 dead plants, 5 healthy plants with no injury): 16 days after treatment; for M.S.: score 0 (dead) to 5 (healthy), 16 days
From the text: as §3, §4, §5

[5] = system: transgenic corn hybrid MAa-7; experiment: as above; conditions: MAa-7; for Score, individual plants (0 dead plants, 5 healthy plants with no injury): 16 days after treatment; for M.S.: score 0 (dead) to 5 (healthy), 16 days
From the text: as §3, §4, §5

[6] = system: 8692 (wild type control corn line); experiment: as above; conditions: for Score, individual plants (0 dead plants, 5 healthy plants with no injury): 16 days after treatment; for M.S.: score 0 (dead) to 5 (healthy), 16 days
[7] = 4×: PURSUIT 250, RAPTOR 160, ARSENAL 96, CADRE 400 g/ha
[8] = 8×: PURSUIT 500, RAPTOR 320, ARSENAL 192, CADRE 800 g/ha

CCc1cnc(C2=NC(C)(C(C)C)C(=O)N2)c(C(=O)O)c1 (stereo not drawn) [PURSUIT ®, imazethapyr]
% seed-set (transgenic rice Line 26; 1× rate): 91% | No. filled seeds/3 panicles (transgenic rice Line 26; 1× rate): 143 | Total No. of kernels/3 panicles (transgenic rice Line 26; 1× rate): 157 | % seed-set (transgenic rice Line 26; 2× rate): 86% | No. filled seeds/3 panicles (transgenic rice Line 26; 2× rate): 133 | Total No. of kernels/3 panicles (transgenic rice Line 26; 2× rate): 155 | % seed-set (transgenic rice Line 26; 4× rate): 89% | No. filled seeds/3 panicles (transgenic rice Line 26; 4× rate): 152 | Total No. of kernels/3 panicles (transgenic rice Line 26; 4× rate): 172 | % seed-set (transgenic rice Line 26; 6× rate): 77% | No. filled seeds/3 panicles (transgenic rice Line 26; 6× rate): 107 | Total No. of kernels/3 panicles (transgenic rice Line 26; 6× rate): 138 | % seed-set (transgenic rice Line 29; 1× rate): 85% | No. filled seeds/3 panicles (transgenic rice Line 29; 1× rate): 125 | Total No. of kernels/3 panicles (transgenic rice Line 29; 1× rate): 146 | % seed-set (transgenic rice Line 29; 2× rate): 88% | No. filled seeds/3 panicles (transgenic rice Line 29; 2× rate): 136 | Total No. of kernels/3 panicles (transgenic rice Line 29; 2× rate): 155 | % seed-set (transgenic rice Line 29; 4× rate): 88% | No. filled seeds/3 panicles (transgenic rice Line 29; 4× rate): 138 | Total No. of kernels/3 panicles (transgenic rice Line 29; 4× rate): 156 | % seed-set (transgenic rice Line 29; 6× rate): 87% | No. filled seeds/3 panicles (transgenic rice Line 29; 6× rate): 141 | Total No. of kernels/3 panicles (transgenic rice Line 29; 6× rate): 160 | % seed-set ([1]; 1× rate): 35% | No. filled seeds/3 panicles ([1]; 1× rate): 38 | Total No. of kernels/3 panicles ([1]; 1× rate): 47 | % seed-set ([1]; 2× rate): 0% | No. filled seeds/3 panicles ([1]; 2× rate): 0 | Total No. of kernels/3 panicles ([1]; 2× rate): 0 | % seed-set ([1]; 4× rate): 10% | No. filled seeds/3 panicles ([1]; 4× rate): 19 | Total No. of kernels/3 panicles ([1]; 4× rate): 21 | % seed-set ([1]; 6× rate): 0% | No. filled seeds/3 panicles ([1]; 6× rate): 0 | Total No. of kernels/3 panicles ([1]; 6× rate): 0 | Score, individual plants (0 dead plants, 5 healthy plants with no injury) [2, 7]: 5 | M.S. [2, 7]: 5 | Score, individual plants (0 dead plants, 5 healthy plants with no injury) [2, 8]: 5 | M.S. [2, 8]: 5 | Score, individual plants (0 dead plants, 5 healthy plants with no injury) ([2]; 20×: PURSUIT 1.25 kg/ha): 5 | M.S. ([2]; 20×: PURSUIT 1.25 kg/ha): 5 | Score, individual plants (0 dead plants, 5 healthy plants with no injury) [3, 7]: 0 | M.S. [3, 7]: 0 | Score, individual plants (0 dead plants, 5 healthy plants with no injury) [3, 8]: 0 | M.S. [3, 8]: 0 | Score, individual plants (0 dead plants, 5 healthy plants with no injury) ([3]; 20×: PURSUIT 1.25 kg/ha): 0 | M.S. ([3]; 20×: PURSUIT 1.25 kg/ha): 0 | Score, individual plants (0 dead plants, 5 healthy plants with no injury) [4, 7]: 5 | M.S. [4, 7]: 5 | Score, individual plants (0 dead plants, 5 healthy plants with no injury) [4, 8]: 5 | M.S. [4, 8]: 5 | Score, individual plants (0 dead plants, 5 healthy plants with no injury) ([4]; 20×: PURSUIT 1.25 kg/ha): 4 (3×) and 3 and 2 | M.S. ([4]; 20×: PURSUIT 1.25 kg/ha): 3.4 | Score, individual plants (0 dead plants, 5 healthy plants with no injury) [5, 7]: 5 | M.S. [5, 7]: 5 | Score, individual plants (0 dead plants, 5 healthy plants with no injury) [5, 8]: 5 | M.S. [5, 8]: 5 | Score, individual plants (0 dead plants, 5 healthy plants with no injury) ([5]; 20×: PURSUIT 1.25 kg/ha): 0 and 3 and 2 (2×) and 4 | M.S. ([5]; 20×: PURSUIT 1.25 kg/ha): 2.2 | Score, individual plants (0 dead plants, 5 healthy plants with no injury) [6, 7]: 2 (3×) and 1 (2×) | M.S. [6, 7]: 1.6 | Score, individual plants (0 dead plants, 5 healthy plants with no injury) [6, 8]: 0 | M.S. [6, 8]: 0 | Score, individual plants (0 dead plants, 5 healthy plants with no injury) ([6]; 20×: PURSUIT 1.25 kg/ha): 0 | M.S. ([6]; 20×: PURSUIT 1.25 kg/ha): 0
